From patent US20260049077A1, “Neurotrophic Receptor Tyrosine Kinase (NTRK) Inhibitors and Methods Using Same” (Baylor College of Medicine, priority 2022, published 2026)

Legend:
[1] = Endometriosis mouse model, liver and kidney toxicity (organ weight, ALT, AST); format: in vivo; design: ALT (Mean ± SD) / AST (Mean ± SD): unit not given here; conditions: for effect on liver and/or kidney weight and/or serum elevation of ALT and AST: 10 mg/kg, mice with endometriotic lesions; for ALT (Mean ± SD) / AST (Mean ± SD): i.p. dose of 10 mg/kg/day for 14 days
Procedure: (§1) In one aspect, the present disclosure provides exemplary data relating to the administration of NTRK2 inhibitors in a mouse model of endometriosis (FIG. 14). In certain embodiments, the recipient mouse is administered the NTRK2 inhibitor and/or controls on day 14 after intraperitoneal injection of endometrium of the donor mouse. In certain embodiments, the recipient mouse is sacrificed and quantitatively assessed on day 28.

[2] = Metabolic stability in mouse liver microsomes (MLM)
NTRK2 = NTRK2 (Homo sapiens (Human), UniProt Q16620); experiment: NTRK2 inhibition (IC50); format: biochemical
NTRK1 = NTRK1 (Homo sapiens (Human), UniProt P04629); experiment: NTRK1 inhibition (IC50); conditions: read-out: NTRK1 IC50
[3] = Metabolic stability in human liver microsomes (HLM)
NTRK3 = NTRK3 (Homo sapiens (Human), UniProt Q16288); experiment: NTRK3 inhibition (IC50); conditions: read-out: NTRK3 IC50
endometriotic lesions = experiment: Endometriosis mouse model, lesion efficacy; format: in vivo; conditions: for endometriotic lesion growth: excised lesions
Procedure: FIGS. 17A-17F depict the robust efficacy of the inhibitory compounds of the present disclosure as NTRK2 inhibitors for inhibition of endometriotic lesion growth in mice utilizing CDD-3132 as an example. FIG. 17A provides a schematic overview of the experiment performed. FIGS. 17B-17C provide photographs showing excised lesions with administration of a control (FIG. 17B) or CDD-3132 (10 mg/kg/day) (FIG. 17C).
as §1

[4] = Brain uptake in mice 24 hours post-administration; format: in vivo, mouse; conditions: mouse, brain, 24 h, read-out: Brain Concentration at 24 h (ng/mg)
[5] = 10 mg/kg, compared to vehicle control

NTRK1, sequence (P04629 33-796): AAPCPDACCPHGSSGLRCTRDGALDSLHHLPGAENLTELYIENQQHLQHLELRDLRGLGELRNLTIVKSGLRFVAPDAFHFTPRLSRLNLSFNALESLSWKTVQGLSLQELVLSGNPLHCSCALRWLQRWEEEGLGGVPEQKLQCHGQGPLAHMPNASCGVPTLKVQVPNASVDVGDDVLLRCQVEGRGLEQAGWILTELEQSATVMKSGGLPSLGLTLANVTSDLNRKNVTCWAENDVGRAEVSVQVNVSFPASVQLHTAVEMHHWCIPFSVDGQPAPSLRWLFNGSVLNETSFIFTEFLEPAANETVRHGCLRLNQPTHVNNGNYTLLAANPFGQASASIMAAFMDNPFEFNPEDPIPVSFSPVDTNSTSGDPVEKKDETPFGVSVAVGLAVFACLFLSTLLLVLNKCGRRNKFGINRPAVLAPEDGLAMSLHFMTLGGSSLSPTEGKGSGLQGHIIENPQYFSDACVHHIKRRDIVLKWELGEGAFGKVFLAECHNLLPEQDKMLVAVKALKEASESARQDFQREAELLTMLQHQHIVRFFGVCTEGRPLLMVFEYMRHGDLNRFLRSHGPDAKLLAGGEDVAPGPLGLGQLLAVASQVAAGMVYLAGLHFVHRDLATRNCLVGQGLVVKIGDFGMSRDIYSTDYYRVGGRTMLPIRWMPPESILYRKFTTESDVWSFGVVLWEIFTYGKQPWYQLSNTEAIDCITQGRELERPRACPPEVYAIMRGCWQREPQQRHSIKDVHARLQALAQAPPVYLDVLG
NTRK2, sequence (Q16620 32-822): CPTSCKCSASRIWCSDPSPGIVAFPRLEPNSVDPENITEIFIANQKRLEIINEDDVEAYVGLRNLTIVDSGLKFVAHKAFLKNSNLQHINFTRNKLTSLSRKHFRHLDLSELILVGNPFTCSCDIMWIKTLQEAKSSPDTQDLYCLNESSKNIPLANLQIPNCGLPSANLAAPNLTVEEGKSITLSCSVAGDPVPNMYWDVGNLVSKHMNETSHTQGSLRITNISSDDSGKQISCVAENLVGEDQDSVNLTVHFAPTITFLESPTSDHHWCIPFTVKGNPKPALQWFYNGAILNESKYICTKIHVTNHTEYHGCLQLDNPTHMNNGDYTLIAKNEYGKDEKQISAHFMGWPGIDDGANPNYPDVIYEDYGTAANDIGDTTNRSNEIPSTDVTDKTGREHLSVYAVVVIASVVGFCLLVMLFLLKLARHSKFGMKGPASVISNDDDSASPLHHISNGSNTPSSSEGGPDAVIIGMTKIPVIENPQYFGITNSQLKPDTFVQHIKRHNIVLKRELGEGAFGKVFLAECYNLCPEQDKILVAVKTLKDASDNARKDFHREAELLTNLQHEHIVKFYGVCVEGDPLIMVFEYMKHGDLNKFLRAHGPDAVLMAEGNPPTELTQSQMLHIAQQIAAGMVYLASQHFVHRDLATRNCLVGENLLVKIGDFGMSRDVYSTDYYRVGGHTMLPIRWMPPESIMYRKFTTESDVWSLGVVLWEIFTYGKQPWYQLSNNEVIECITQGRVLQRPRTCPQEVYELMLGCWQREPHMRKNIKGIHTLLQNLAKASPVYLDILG
NTRK3, sequence (Q16288 32-839): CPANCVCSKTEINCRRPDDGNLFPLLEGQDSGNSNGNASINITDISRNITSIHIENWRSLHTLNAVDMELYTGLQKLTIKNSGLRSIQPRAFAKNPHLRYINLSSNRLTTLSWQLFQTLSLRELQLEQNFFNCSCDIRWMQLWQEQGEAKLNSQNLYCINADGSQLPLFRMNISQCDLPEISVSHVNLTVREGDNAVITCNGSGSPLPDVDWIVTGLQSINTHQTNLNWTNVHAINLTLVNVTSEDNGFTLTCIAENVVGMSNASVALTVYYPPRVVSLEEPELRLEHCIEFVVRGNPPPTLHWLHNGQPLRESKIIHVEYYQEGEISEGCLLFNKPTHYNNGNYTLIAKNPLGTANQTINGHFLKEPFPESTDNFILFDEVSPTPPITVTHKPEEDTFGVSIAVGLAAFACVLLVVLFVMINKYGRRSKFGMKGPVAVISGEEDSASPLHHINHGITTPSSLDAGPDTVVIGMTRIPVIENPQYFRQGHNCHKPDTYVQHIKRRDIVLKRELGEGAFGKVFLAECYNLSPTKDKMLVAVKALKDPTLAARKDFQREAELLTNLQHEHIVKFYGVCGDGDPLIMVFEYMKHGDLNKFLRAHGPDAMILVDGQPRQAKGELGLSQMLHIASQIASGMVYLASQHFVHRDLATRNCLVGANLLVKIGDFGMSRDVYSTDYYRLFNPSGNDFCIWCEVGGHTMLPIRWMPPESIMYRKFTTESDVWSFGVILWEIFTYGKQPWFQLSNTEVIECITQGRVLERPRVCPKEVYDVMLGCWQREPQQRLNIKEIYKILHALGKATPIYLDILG

| half-life [2] [h] | IC50 (NTRK2) [nM] | IC50 (NTRK1) [nM] | half-life [3] [h] | IC50 (NTRK3) [nM] | SMILES | also measured |
| --- | --- | --- | --- | --- | --- | --- |
| – | – | – | – | – | CC(C)(CO)n1cc(C(=O)c2cncc(NC(=O)Cc3ccc(Cl)cn3)c2)c2cnc(N)nc21 [PF-0672, reference compound] | effect on liver and/or kidney weight and/or serum elevation of ALT and AST [1]: little to no effect |
| 3.08 | 4.3 | 16.6 | 10 | 10.1 | CC(C)N(Cc1ccn2ncc(C(N)=O)c2c1)C(=O)COc1ccc(OC(F)(F)F)cc1 [CDD-3133, 5-((N-isopropyl-2-(4-(trifluoromethoxy)phenoxy)acetamido)methyl)pyrazolo[1,5-a]pyridine-3-carboxamide] | – |
| 0.102 | 6.7 | 61 | 1.78 | 15.3 | CC(C)N(Cc1ccn2ncc(C(N)=O)c2c1)C(=O)COc1ccc(C(C)(C)C)cc1 [CDD-3184, 5-((2-(4-(tert-butyl)phenoxy)-N-isopropylacetamido)methyl)pyrazolo[1,5-a]pyridine-3-carboxamide] | – |
| 0.0833 | 4.5 | 12.4 | 0.192 | 5.3 | O=C(Nc1ccccc1C(F)(F)F)N(Cc1ccn2nccc2c1)C1CCC1 [CDD-2274, 1-cyclobutyl-1-(pyrazolo[1,5-a]pyridin-5-ylmethyl)-3-(2-(trifluoromethyl)phenyl)urea] | – |
| 2.38 | 59 | 277 | 3.22 | 142 | CC(C)N(Cc1ccn2ncc(C(N)=O)c2c1)C(=O)CNc1ccc(OC(F)(F)F)cc1 [CDD-3254, 5-((N-isopropyl-2-((4-(trifluoromethoxy)phenyl)amino)acetamido)methyl)pyrazolo[1,5-a]pyridine-3-carboxamide] | – |
| > 3.33 | 10600 | 58200 | > 3.33 | 10900 | CC(=O)c1ccc(OCC(=O)N(C)Cc2ccn3ncc(C(N)=O)c3c2)cc1 [CDD-3257, 5-((2-(4-acetylphenoxy)-N-methylacetamido)methyl)pyrazolo[1,5-a]pyridine-3-carboxamide] | – |
| – | – | – | – | – | O=C(Nc1ccccc1C(=O)NC1CCCCNC1=O)c1cc2ccccc2s1 (stereo not shown) [ANA-12, reference compound] | endometriotic lesion regression (endometriotic lesions; mice): endometriotic lesion regression |
| 3.37 | – | – | 8.37 | – | CC(C)(CO)n1cc(C(=O)c2cncc(NC(=O)Cc3ccc(Cl)cn3)c2)c2cnc(N)nc21 [PF-06273340, N-[5-[[2-Amino-7-(2-hydroxy-1,1-dimethylethyl)-7H-pyrrolo[2,3-d]pyrimidin-5-yl]carbonyl]-3-pyridinyl]-5-chloro-2-pyridineacetamide, reference compound] | concentration at 24 h [4]: 80 ng/g; number, volume and mass of lesions (endometriotic lesions; [5]): reduction of lesions, volume of lesions, and mass of lesions; endometriotic lesion growth (endometriotic lesions; 10 mg/kg): inhibiting endometriotic lesion growth; ALT (Mean ± SD) [1]: 15.1 ± 1.6; AST (Mean ± SD) [1]: 25.3 ± 7.1 |
| 11.8 | 517 | 4560 | 11.5 | 1370 | CN(Cc1ccn2ncc(C(N)=O)c2c1)C(=O)COc1ccc(OC(F)(F)F)cc1 [CDD-3132, 5-((N-methyl-2-(4-(trifluoromethoxy)phenoxy)acetamido)methyl)pyrazolo[1,5-a]pyridine-3-carboxamide] | number, volume and mass of lesions (endometriotic lesions; [5]): reduction of lesions, volume of lesions, and mass of lesions; size of endometriotic lesions (endometriotic lesions; [5]): decreased size of endometriotic lesions; endometriotic lesion growth (endometriotic lesions; 10 mg/kg): inhibiting endometriotic lesion growth; proliferation, vascularization, macrophage infiltration, inflammation within endometriotic lesions (endometriotic lesions; 10 mg/kg, H&E staining, confocal microscopy): reduction of proliferation, vascularization, macrophage infiltration, and/or inflammation; effect on liver and/or kidney weight and/or serum elevation of ALT and AST [1]: little to no effect; ALT (Mean ± SD) [1]: 20.5 ± 12.6; AST (Mean ± SD) [1]: 33.5 ± 20.6; impact on liver and kidney weights ([1]; mice treated for 14 days): no significant impact |
| 0.683 | 5.8 | 11.7 | 2.13 | 4.4 | CC(C)N(Cc1ccn2ncc(C#N)c2c1)C(=O)Nc1ccc(OC(F)(F)F)cc1 [CDD-2741, 1-((3-cyanopyrazolo[1,5-a]pyridin-5-yl)methyl)-1-isopropyl-3-(4-(trifluoromethoxy)phenyl)urea] | – |
| 2.02 | 1.7 | 18.1 | 6.47 | 2.9 | CC(C)N(Cc1ccn2ncc(C(=N)NO)c2c1)C(=O)Nc1ccc(OC(F)(F)F)cc1 [CDD-2744, N-hydroxy-5-((1-isopropyl-3-(4-(trifluoromethoxy)phenyl)ureido)methyl)pyrazolo[1,5-a]pyridine-3-carboximidamide] | – |
| 3.73 | 0.52 | 7.5 | 6.35 | 1.51 | NC(=O)c1cnn2ccc(CN(C(=O)Nc3ccc(OC(F)(F)F)cc3)C3CC3)cc12 [CDD-2738, 5-((1-cyclopropyl-3-(4-(trifluoromethoxy)phenyl)ureido)methyl)pyrazolo[1,5-a]pyridine-3-carboxamide] | concentration at 24 h [4]: 2300 ng/g |
| 0.317 | 31.5 | 357 | 0.75 | 54 | C=C(C)c1ccc(OCC(=O)N(Cc2ccn3ncc(C(N)=O)c3c2)C(C)C)cc1 [CDD-3255, 5-((N-isopropyl-2-(4-(prop-1-en-2-yl)phenoxy)acetamido)methyl)pyrazolo[1,5-a]pyridine-3-carboxamide] | – |
| > 3.33 | 223 | 1870 | > 3.33 | 312 | CC(=O)c1ccc(OCC(=O)N(Cc2ccn3ncc(C(N)=O)c3c2)C(C)C)cc1 [CDD-3256, 5-((2-(4-acetylphenoxy)-N-isopropylacetamido)methyl)pyrazolo[1,5-a]pyridine-3-carboxamide] | – |
| 5.63 | 963 | 11000 | 4.5 | 2320 | CN(Cc1ccn2ncc(C(N)=O)c2c1)C(=O)CNc1ccc(OC(F)(F)F)cc1 [CDD-3258, 5-((N-methyl-2-((4-(trifluoromethoxy)phenyl)amino)acetamido)methyl)pyrazolo[1,5-a]pyridine-3-carboxamide] | – |
| 5.85 | 132 | 749 | 3.95 | 153 | NC(=O)c1cnn2ccc(CNC(=S)Nc3ccc(OC(F)(F)F)cc3)cc12 [CDD-3131, 5-((3-(4-(trifluoromethoxy)phenyl)thioureido)methyl)pyrazolo[1,5-a]pyridine-3-carboxamide] | – |
| 11.5 | 19 | 151 | 6.37 | 21.5 | CN(Cc1ccn2ncc(C(N)=O)c2c1)C(=S)Nc1ccc(OC(F)(F)F)cc1 [CDD-3118, 5-((1-methyl-3-(4-(trifluoromethoxy)phenyl)thioureido)methyl)pyrazolo[1,5-a]pyridine-3-carboxamide] | – |
